Several values for one entry are separate records, joined by “and”; a condition that tells them apart may be missing. Equal values may be shown once.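 Briefly, cells in 96-well plates were exposed to five compound concentrations for 48 h, and endpoints were estimated by linear interpolation. Here, GI50 denotes the concentration required for 50% inhibition of growth. TGI: total growth inhibition.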
Legend:
Experiment in all cases: growth of human tumour cells (NCI), 48 h
A498 renal = test system: A498 renal
A549 NSCLC = test system: A549 NSCLC
CAKI-1 renal = test system: CAKI-1 renal
DU-145 prostate = test system: DU-145 prostate
K-562 leukemia = test system: K-562 leukemia
KM12 colon = test system: KM12 colon
LOX IMVI melanoma = test system: LOX IMVI melanoma
NCI-H23 lung = test system: NCI-H23 lung
NCI/ADR-RES ovarian = test system: NCI/ADR-RES ovarian
PC-3 prostate = test system: PC-3 prostate

Row | SMILES | GI50 (A498 renal) | TGI (A498 renal) | GI50 (A549 NSCLC) | TGI (A549 NSCLC) | GI50 (CAKI-1 renal) | TGI (CAKI-1 renal) | GI50 (DU-145 prostate) | TGI (DU-145 prostate) | GI50 (K-562 leukemia) | TGI (K-562 leukemia) | GI50 (KM12 colon) | TGI (KM12 colon) | GI50 (LOX IMVI melanoma) | TGI (LOX IMVI melanoma) | GI50 (NCI-H23 lung) | TGI (NCI-H23 lung) | GI50 (NCI/ADR-RES ovarian) | TGI (NCI/ADR-RES ovarian) | GI50 (PC-3 prostate) | TGI (PC-3 prostate)
1 | CCc1nc(N)nc(N)c1C#CC(C)c1ccc(-c2ccncc2)cc1Cl (stereo not given) | 0.109 µM and 0.223 µM | 1.64 µM and 5.81 µM | < 0.005 µM | 2 µM and 11.4 µM | 0.0259 µM | 5.07 µM | 0.0242 µM and 0.0658 µM | 5.01 µM and 13.7 µM | < 0.005 µM | 28.5 µM and 15.2 µM | 0.0271 µM and 0.0678 µM | 5.73 µM and 14.5 µM | < 0.005 µM | 1.37 µM and 11.3 µM | 0.00854 µM and 0.0332 µM | 5.01 µM and 5.71 µM | 0.0096 µM and 0.0366 µM | 5.11 µM and 9.3 µM | < 0.005 µM | 4.85 µM and 12.5 µM
2 | NCC(=O)Nc1ccc(Cl)cc1C(=O)c1ccc[nH]1 | – | > 100 µM | – | > 100 µM | – | > 100 µM | – | > 100 µM | – | > 100 µM | – | > 100 µM | – | > 100 µM | – | > 100 µM | – | > 100 µM | – | > 100 µM
3 | N[C@H]1CCC[C@@H](O)C1O (stereo not given in full) | – | > 100 µM | – | > 100 µM | – | > 100 µM | – | > 100 µM | – | > 100 µM | – | > 100 µM | – | > 100 µM | – | > 100 µM | – | > 100 µM | – | > 100 µM
4 | COc1ccc([N+](=O)[O-])c2c(NCCCN(C)C)c(C)c(C)nc12 | – | > 100 µM | – | > 100 µM | – | > 100 µM | – | > 100 µM | – | > 100 µM | – | > 100 µM | – | > 100 µM | – | > 100 µM | – | > 100 µM | – | > 100 µM
5 | COC(=O)CNC(=O)C(=O)c1c(O)c(O)c(C(C)C)c2cc(C)c(-c3c(C)cc4c(C(C)C)c(O)c(O)c(C(=O)C(=O)NCC(=O)OC)c4c3O)c(O)c12 | 2.6 µM | 12.2 µM | 2.13 µM | 8.01 µM | 3.74 µM | 14.3 µM | 1.99 µM | 7.91 µM | 1.88 µM | > 50 µM | 1.39 µM | 7.29 µM | 1.56 µM | 6.28 µM | 1.53 µM | 6.37 µM | 1.93 µM | 9.28 µM | 1.84 µM | 7.26 µM
6 | CNC(=O)[C@H](Cc1c[nH]c2ccccc12)NC(=O)[C@@H](CC(=O)NO)CC(C)C | > 25 µM | > 25 µM | > 25 µM | > 25 µM | > 25 µM | > 25 µM | > 25 µM | > 25 µM | 21.6 µM | > 25 µM | > 25 µM | > 25 µM | > 25 µM | > 25 µM | > 25 µM | > 25 µM | > 25 µM | > 25 µM | > 25 µM | > 25 µM
7 | COc1ccc2[nH]c3c(C)c4c(c(C)c3c2c1)CN(C)C=C4 | – | 21.3 µM | – | 23.6 µM | – | 57.5 µM | – | 33.8 µM | – | 46.5 µM | – | 10.6 µM | – | 28.1 µM | – | 3.28 µM | – | > 100 µM | – | 81.3 µM
8 | COc1ccc(-c2cn(C)c3c2-n2cccc2C3=O)cc1O | 2.82 µM | 9.4 µM | 18.1 µM | 54.1 µM | 2.09 µM | 7.77 µM | 12.5 µM | 32.9 µM | 4.3 µM | > 100 µM | 3.71 µM | 16.4 µM | 3.71 µM | 13.3 µM | 3.22 µM | 16.5 µM | 3.39 µM | 25.3 µM | 6.09 µM | > 100 µM
9 | C=C1C(=O)OC2CC1C(OC(=O)/C=C/c1ccccc1)C/C(C)=C/CC/C(C)=C/CCC2(C)O (stereo not given) | – | 3.68 µM | – | 3.19 µM | – | 2.78 µM | – | 2.77 µM | – | > 100 µM | – | 3.41 µM | – | 2.61 µM | – | 4.91 µM | – | 9.4 µM | – | 3.22 µM

Source: PubChem BioAssay (NCI)
